From paper PMC10381533, “Inhibitory Effects of the Fungal Pigment Rubiginosin C on Hyphal and Biofilm Formation in Candida albicans and Candida auris” (Journal of Fungi, 2023)
Like-named read-outs stand apart in the source and are kept apart here.

How the values were obtained:
[1] = system: mouse fibroblasts L929 [ACC 2]; details: cited from earlier work
[2] = system: human endocervical adenocarcinoma KB-3-1 [ACC 158] cells; details: cited from earlier work
[3] = system: human endocervical adenocarcinoma KB-3-1 [ACC 158] cells; assay: MTT cytotoxicity assay, KB-3-1; assay type: cell-based; details: KB 3-1
Experimental: (§1) Cytotoxic effects were evaluated on human endocervical adenocarcinoma KB-3-1 [ACC 158] cells and mouse fibroblasts L929 [ACC 2] upon treatment with Rub C, W, and Rut A and B within the concentration range of 37 μg/mL–0.63 ng/mL. The half-maximum inhibitory concentrations (IC50) were determined by standard MTT assays as reported previously (see the Supplementary Material for detailed information). The IC50 values of Rub A and Z have currently been reported. […]
(§2) KB-3-1 (ACC 158) cervix carcinoma as well as L929 (ACC 2) mouse fibroblasts were cultured under standard cell culture conditions (37 °C, 5% CO2, 95% humidified atmosphere). The cells were maintained in high glucose DMEM containing 10% fetal bovine serum and 100 U/mL penicillin and streptomycin (Gibco, Thermo Fisher Scientific, Waltham, USA). Cell lines were serially passaged after trypsinization, using 0.05% trypsin / 0.02% EDTA solution. The cultures were routinely monitored for potential contamination, and only mycoplasma free cultures were used. The test compounds were investigated for their anti-proliferative effect on cell lines, using the 3-(4,5-dimethylthiazol-2-yl)-2,5-diphenyltetrazolium bromide (MTT) based cell viability assay. Cells were seeded in 96 well microtiter plates (Sarstedt, Germany) with a cell density of 0.05 * 10^6 cells per mL and 100 μL per well and were incubated for 24 h. […]
(§3) Absorbances at 570 nm and 630 nm were measured with a plate reader (Tecan, Männedorf, canton of Zürich, Switzerland). Background absorbance (630 nm) was subtracted from the formazan signal (570 nm). The resulting absorbance is directly proportional to the amount of viable cells. The control was normalized to 100% viable cells, and the viability of cells treated with the test compounds was calculated accordingly. IC50 values were calculated based on a sigmoidal fit model using GraphPad Prism. Means and SD were calculated from at least four independent experiments. […]

[4] = system: mouse fibroblasts L929 [ACC 2]; assay: MTT cytotoxicity assay, L929; assay type: cell-based
Experimental: as §1, §2, §3

[5] = parameters: method as in PMID 15921417; details: OA alone; cited from earlier work
C. auris biofilm = assay: Crystal violet biofilm formation assay, C. auris; assay type: cell-based, Candida auris; details: for effect on formation of C. auris biofilms: CV assay, 24 h treatment; for inhibition at 2 µg/mL / inhibition at 3.9 µg/mL / inhibition at 7.8 µg/mL / inhibition at 15.6 µg/mL / inhibition at 31.3 µg/mL / inhibition at 62.5 µg/mL / inhibition at 125 µg/mL / inhibition at 250 µg/mL: Candidozyma auris, read-out: inhibition of C. auris biofilm formation compared to solvent control (= 0%)
Experimental: (§4) The fungal pathogens C. auris [[…]] or C. albicans [DSM 11225] were cultured from stock in 25 mL YPD medium in a 250 mL flask (30 °C, 100 rpm, 18 h). The turbidity of the broth was measured at 280 nm using a spectrophotometer (Nanodrop 2000c, Thermo Fisher Scientific, Waltham, MA, USA) and diluted to match the turbidity of a 0.5 McFarland standard in RPMI 1640 medium (Gibco, New York, NY, USA; Thermo Fisher Scientific), supplemented with […] 3-(N-morpholino)propanesulfonic acid (MOPS, Carl Roth, Karlsruhe, Germany) for C. auris, or 0.05 McFarland standard in RPMI 1640 medium in the case of C. albicans. Subsequently, 150 μL of the fungal dispersion were added into each well of a 96-well microtiter plate (Falcon no. 351172, Thermo Fisher Scientific) and further incubated (37 °C, 150 rpm, 2 h [C. auris] or 90 min [C. albicans]). The supernatant was discarded and the plate was rinsed one time by using a PBS buffer. Afterwards, azaphilones (Rub A, C, W, Z, and Rut A and B) were serially diluted in 150 μL in fresh medium to concentrations of 250–2 μg/mL (Rub C for C. auris: 250–0.02 μg/mL). Methanol (2.5%) was used as a solvent control and both, nystatin (NYS; Thermo Fisher Scientific) and farnesol (FA; Sigma Aldrich, St. Louis, MO, USA) as positive controls (250–2 μg/mL) for C. auris and C. albicans, respectively. Plates were further incubated (37 °C, 150 rpm, 24 h). The supernatant was discarded and biofilms were washed with PBS, stained by adding 150 μL of the crystal violet (CV; Sigma Aldrich) solution (0.1%), and incubated (room temperature, 25 min). Afterwards, the plates were washed twice with PBS buffer. A total of 150 μL ethanol (95%) were applied to dissolve the biofilm-bound CV. The absorbance was measured by a plate reader (Synergy 2, BioTek, Santa Clara, CA, USA) at 570 nm for C. auris or 610 nm for C. albicans. Error bars indicate SD with duplicates in two biological repeats.

C. albicans [DSM 1665] = system: C. albicans [DSM 1665]; parameters: method as in doi:10.1002/ejoc.202001661; details: highest tested concentration 250 µg/mL; cited from earlier work
[6] = system: C. albicans CAI-4 HWP1-lacZ [ZK3379]; assay: MIC assay, C. albicans CAI-4 HWP1-lacZ; assay type: cell-based, Candida albicans; details: tested 250–2 µg/mL
Experimental: (§5) The MICs of rubiginosin- and rutilin-type azaphilones—in detail, Rub A, C, W, Z, and Rut A and B—were determined as described previously using the selected pathogens C. albicans [DSM 11225, DSM 1665], C. albicans CAI-4 HWP1-lacZ [ZK3379] and C. auris [DSM 21092] (see Table S1 for detailed information). All compounds were tested within the concentration range of 250 µg/mL–2 µg/mL for C. albicans [DSM 11225, DSM 1665], C. albicans CAI-4 HWP1-lacZ [ZK3379], C. auris [DSM 21092]. […]
(§6) All compounds were fully dissolved in
(§7) The assay was conducted as a minimum inhibitory concentration (MIC) assay in 96-well round-bottom microtiter plates using the parameters summarized in table S1 and as already described in [2]. Stocks of the test organisms were generated by growing the organisms overnight in 250 mL (Candida albicans [DSM 11225], [DSM 1665], CAI-4 HWP1-lacZ, Candida auris [DSM 21092]) or 50 mL shaking (the rest organisms) flasks filled with 25 mL of the growth medium at 140 rpm (for media and temperatures see table S1). After incubation overnight, the OD of the suspension was measured and adjusted by diluting with the respective growth medium. OD600 nm was adjusted to 0.01 for bacteria and OD600 nm to 0.1 for fungi and 150 μL of the adjusted suspensions were added to all wells of a 96-well microtiter plate (one test organism per plate). Subsequently, additional 130 μL (1 mg/mL tested compounds) or 142.5 μL (10 mg/mL tested compounds ) of suspensions, plus 20 μL (1 mg/mL tested compounds) respectively 7.5 μL (10 mg/mL tested compounds ) of the test compounds were added to first row. C ontrols (one compound/column) were added as well: MeOH were used as solvent control, while different positive controls (reference drugs ) were used for the according test organisms (see table S1). Starting from row A, 150 μL of the suspension were transferred […]
(§8) to the next row, the contents thoroughly mixed, and 150 μL transferred to the following row. The remaining 150 μL after row H were discarded.
(§9) 66.7 μg/mL in row A to 0.52 μg/mL in row H (1 mg/mL tested compounds) or 250 μg/mL in row A to 2 μg/mL in row H (10 mg/mL tested compounds).
(§10) The 96-well microtiter plates were then incubated overnight on a microplate shaker at 800 rpm at 30 or 37 °C (see table S1) and were visually evaluated the next day. The MIC is defined as the lowest concentration where no growth of the test organism was observed. A lower MIC thus corresponds to a higher antimicrobial activity […]
(§11) Table S1: MIC assay experiment parameters.
(§12) Tested organisms Strain No. Growth Incubation Positive control medium temp. [°C ] (reference)
as §2, with “assay.” for “assay. Cells were seeded in 96 well microtiter plates (Sarstedt, Germany) with a cell density of 0.05 * 10^6 cells per mL and 100 μL per well and were incubated for 24 h.”

C. albicans [DSM 11225] = assay: MIC assay, C. albicans DSM 11225; assay type: cell-based, Candida albicans; details: tested 250–2 µg/mL
Experimental: as §5, §6, §7, §8, §9, §10, §11, §12
as §2, with “assay.” for “assay. Cells were seeded in 96 well microtiter plates (Sarstedt, Germany) with a cell density of 0.05 * 10^6 cells per mL and 100 μL per well and were incubated for 24 h.”

[7] = system: murine fibroblasts (L929) and human endocervical adenocarcinoma cells (KB-3-1); parameters: method as in doi:10.1002/ejoc.202001661; details: range over Rub A and Rub Z and over both cell lines; cited from earlier work
[8] = system: C. albicans [DSM 11225] biofilm; assay: Crystal violet biofilm formation assay, C. albicans; assay type: cell-based, Candida albicans; details: CV assay, 24 h treatment
Experimental: as §4, with “Methanol (2.5%) was used as a solvent control and both, nystatin (NYS; Thermo Fisher Scientific) and farnesol (FA; Sigma Aldrich, St. Louis, MO, USA) as positive controls (250–2 μg/mL) for C. auris and C. albicans, respectively. Plates were further incubated (37 °C, 150 rpm, 24 h). The supernatant was discarded and biofilms were washed with PBS, stained by adding 150 μL of the crystal violet (CV; Sigma Aldrich) solution (0.1%), and incubated (room temperature, 25 min). Afterwards, the plates were washed twice with PBS buffer. A total of 150 μL ethanol (95%) were applied to dissolve the biofilm-bound CV.” left out, “Error bars indicate SD with duplicates in two biological repeats.” left out

C. auris [DSM 21092] = assay: MIC assay, C. auris; assay type: cell-based, Candida auris; details: tested 250–2 µg/mL
Experimental: as §5, §6, §7, §8, §9, §10, §11, §12
as §2, with “assay.” for “assay. Cells were seeded in 96 well microtiter plates (Sarstedt, Germany) with a cell density of 0.05 * 10^6 cells per mL and 100 μL per well and were incubated for 24 h.”

| SMILES | IC50 [1] [nM] | IC50 [2] [nM] | effect on formation of C. auris biofilms (C. auris biofilm) | inhibition at 2 µg/mL (C. auris biofilm) [%] | inhibition at 3.9 µg/mL (C. auris biofilm) [%] | inhibition at 7.8 µg/mL (C. auris biofilm) [%] | inhibition at 15.6 µg/mL (C. auris biofilm) [%] | inhibition at 31.3 µg/mL (C. auris biofilm) [%] | inhibition at 62.5 µg/mL (C. auris biofilm) [%] | inhibition at 125 µg/mL (C. auris biofilm) [%] | inhibition at 250 µg/mL (C. auris biofilm) [%] | MIC (C. albicans [DSM 1665]) | MIC [6] | MIC (C. albicans [DSM 11225]) | IC50 values between [7] [µg/mL] | MIC (C. auris [DSM 21092]) | further results |
| --- | --- | --- | --- | --- | --- | --- | --- | --- | --- | --- | --- | --- | --- | --- | --- | --- | --- |
| C/C(=C\c1csc(C)n1)[C@@H]1C[C@@H]2O[C@]2(C)CCC[C@H](C)[C@H](O)[C@@H](C)C(=O)C(C)(C)[C@@H](O)CC(=O)O1 [Epothilone B, reference compound] |  |  |  |  |  |  |  |  |  |  |  |  |  |  |  |  | IC50 ([1]; second value of the cell): 0.031 nM; IC50 ([2]; second value of the cell): 0.028 nM; IC50 [3]: 0.053 nM; IC50 [4]: 0.17 nM |
| Cc1cc(O)cc(O)c1C(=O)O [OA, orsellinic acid] |  |  |  |  |  |  |  |  |  |  |  |  |  |  |  |  | cytotoxicity [5]: no cytotoxicity |
| CC(=O)OC/C=C/C1=CC2=C(CO1)C(=O)[C@@](C)(O)[C@@H](OC(=O)c1c(C)cc(O)cc1O)C2 [Rub A, rubiginosin A] | 3200 | 5200 | did not affect the formation | < 20 | < 20 | < 20 | < 20 | < 20 | < 20 | < 20 | < 20 | no antimicrobial activity | no antimicrobial activity | no antimicrobial activity | 2.6 to 4.5 | no antimicrobial activity | concentration above which significant effects on C. albicans biofilm formation start [8]: above 31.3 µg/mL |
| CC(=O)OC/C=C/C1=CC2=C(CO1)C(=O)[C@@](C)(OC(=O)c1c(C)cc(O)cc1O)[C@@H](O)C2 [Rub Z, rubiginosin Z] | 4700 | 5200 | did not affect the formation | < 20 | < 20 | < 20 | < 20 | < 20 | < 20 | < 20 | < 20 | no antimicrobial activity | no antimicrobial activity | no antimicrobial activity | 2.6 to 4.5 | no antimicrobial activity |  |
